The compounds below were run against human truncated cGAS enzyme (147-522 human cGAS) (Homo sapiens (Human), UniProt Q8N884) (assay: Quantification of cGAS protein inhibition (cGAMP formation measured by LC-MS/MS)). Conditions: reported for the potential mixture in solution of co-existing tautomers and/or racemates.
Type: biochemical
Protocol: A reagent buffer was prepared in filtered and autoclaved water according to the following: • 50 mM Tris-buffer pH 7.5 (1 M Tris-buffer pH 7.5, Invitrogen, Cat. No. 15567-027); • 50 mM NaCl (5 M NaCl, Sodium Chloride Solution, Sigma, 59222C-); • 5 mM MgCl2 (1 M MgCl2, Sigma, M1028); • 0.1 mM ZnCl2 (Zinc Chloride [7646-85-7], powder, Cell Culture Tested, Sigma, Z-0152); and • 0.001% Tween 20 (TWEEN 20, Sigma Aldrich, P1379-).
A buffer for the cGAS enzyme was prepared in filtered and autoclaved water according to the following: • 50 mM Tris-buffer pH 7.5; • 5 mM MgCl2; and • 0.001% Tween 20.
Compounds were dispensed to a […]. The human truncated cGAS enzyme (4.2 mg/mL 147-522 human cGAS, MW 43,909 g/mol) was stored in 50 mM Tris, 500 mM NaCl, 5% (v/v) glycerol at pH 8 and diluted in the cGAS buffer enzyme shortly before use. The enzyme solution was transferred into the reagent buffer to give a final concentration of 30 nM. The reaction was started by mixing the enzyme with ISD (a 45 bp double stranded DNA, MW 27,670 g/mol, 5 mM), GTP and ATP to a final concentration of 5 μM, 0.5 mM and 0.5 mM respectively in a final volume of 10 μl. The reaction plates were then centrifuged at 1000 rpm for 1 minute and incubated at room temperature for 1 h. After 1 h of incubation, [^5Ns]-2′3′-cGAMP to a final concentration of 200 nM and 30 μL of 100% acetonitrile/0.175% of TFA were added to the reaction mixture. The plates were centrifuged at 1000 rpm for 1 minute before being sealed for 3 seconds at 170° C. using a ThermoScientific sealer (ALPS™ 50V) and an aluminum sealing cover (Pierce Seal, 4titude, Product Code: 4TI-0531).
The concentration of cGAMP was measured on a LC-MS/MS system consisting of a THERMO Dionex Ultimate LC system with a high pressure pump, an autosampler, a column heating compartment (Reinach, Switzerland) and a SCIEX Triple Quad 5500 (Framingham, MA, USA) mass spectrometer for detection. The sample plates were centrifuged for 10 minutes at 2000 rpm. Up to three plates were placed in the autosampler for injection. An aliquot of 10 μL of each sample was injected on an XBridge BEH Amide 3.5 μm, 2.1×50 mm column (P/N 186004859) with an XBridge BEH Amide 5 μm 2.1×5 mm VanGuard Cartridge (P/N 186007760) pre-column (both WATERS, MA, USA) held at 40° C. An isocratic flow of 1.0 mL/min solvent (60% ACN, 8 mM ammonium acetate, 5 mM ammonium hydroxide, 0.04% acetic acid) was applied and sprayed into the ion source of the mass spectrometers. The MS parameters were optimized based on the properties of the compounds to be detected and run in positive multi-reaction mode (MRM) based on the mass transitions. LC and MS parameters were also optimized to allow for a sample-to-sample measuring time of approximately 75 sec and a run time of 8 hours per 384-well plate. All data were analyzed with Excel; and the dose response curves were generated using the auto fitting function of XLfit. The IC50 was determined by plotting the cGAMP concentration ratio (cGAMP divided by the internal standard [^15Ns]-2′3′-cGAMP) versus the concentration of compound.

human truncated cGAS enzyme (147-522 human cGAS), sequence (Q8N884 147-522): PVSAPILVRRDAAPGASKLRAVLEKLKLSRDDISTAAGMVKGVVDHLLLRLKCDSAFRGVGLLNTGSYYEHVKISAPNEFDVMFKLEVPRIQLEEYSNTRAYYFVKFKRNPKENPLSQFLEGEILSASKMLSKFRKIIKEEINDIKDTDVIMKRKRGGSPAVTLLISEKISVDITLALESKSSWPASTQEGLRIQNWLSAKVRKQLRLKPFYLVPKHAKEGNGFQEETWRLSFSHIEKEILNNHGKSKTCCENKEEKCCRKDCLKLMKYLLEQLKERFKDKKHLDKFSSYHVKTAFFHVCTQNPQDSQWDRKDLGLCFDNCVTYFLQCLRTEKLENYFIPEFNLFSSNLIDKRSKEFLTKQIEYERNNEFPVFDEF

Row | IC50 [nM] | Compound
1 | 659 | FC(F)Oc1cc2c(-n3ccnc3)c(-c3nnc(C(F)(F)F)[nH]3)[nH]c2cc1Cl [Example 112, 6-chloro-5-(difluoromethoxy)-3-(1H-imidazol-1-yl)-2-(5-(trifluoromethyl)-4H-1,2,4-triazol-3-yl)-1H-indole]
2 | 65 | COCC(c1nnc(-c2c(-n3ccnc3)c3cc(OC)c(Cl)c(F)c3n2C)[nH]1)n1ccnc1 (stereo not shown) [Example 100, 2-(5-(1-(1H-imidazol-1-yl)-2-methoxyethyl)-4H-1,2,4-triazol-3-yl)-6-chloro-7-fluoro-3-(1H-imidazol-1-yl)-5-methoxy-1-methyl-1H-indole]
3 | 79 | COc1cc2c(-n3ccnc3)c(-c3nnc(C(F)(F)F)[nH]3)[nH]c2cc1Cl [Example 107, 6-chloro-3-(1H-imidazol-1-yl)-5-methoxy-2-(5-(trifluoromethyl)-4H-1,2,4-triazol-3-yl)-1H-indole]
4 | 108 | COc1cc2c(-n3ccnc3)c(-c3nnc(C(C)=O)[nH]3)n(C)c2c(F)c1Cl [Example 102, 1-(5-(6-chloro-7-fluoro-3-(1H-imidazol-1-yl)-5-methoxy-1-methyl-1H-indol-2-yl)-4H-1,2,4-triazol-3-yl)ethan-1-one]
5 | 120 | COC[C@@H](c1nnc(-c2c(-n3ccnc3)c3cc(OC)c(Cl)c(F)c3n2C)[nH]1)N(C)C [Example 124a, (R)-1-(5-(6-chloro-7-fluoro-3-(1H-imidazol-1-yl)-5-methoxy-1-methyl-1H-indol-2-yl)-4H-1,2,4-triazol-3-yl)-2-methoxy-N,N-dimethylethan-1-amine]

Same assay, conditions: reported for the potential mixture of co-existing tautomers and/or racemates

Row | IC50 [nM] | Compound
6 | 75 | COCC(=O)c1nnc(-c2c(-n3ccnc3)c3cc(OC)c(Cl)c(F)c3n2C)[nH]1 [Example 88, 1-(5-(6-chloro-7-fluoro-3-(1H-imidazol-1-yl)-5-methoxy-1-methyl-1H-indol-2-yl)-4H-1,2,4-triazol-3-yl)-2-methoxyethan-1-one]
7 | 56 | COc1cc2c(-n3ccnc3)c(-c3nnc(C(F)(F)CO)[nH]3)n(C)c2c(F)c1Cl [Example 95, 2-(5-(6-chloro-7-fluoro-3-(1H-imidazol-1-yl)-5-methoxy-1-methyl-1H-indol-2-yl)-4H-1,2,4-triazol-3-yl)-2,2-difluoroethan-1-ol]
8 | 30 | COc1cc2c(-n3ccnc3)c(-c3nnc(C(O)C(F)F)[nH]3)n(C)c2c(F)c1Cl (stereo not shown) [Example 96, 1-(5-(6-chloro-7-fluoro-3-(1H-imidazol-1-yl)-5-methoxy-1-methyl-1H-indol-2-yl)-4H-1,2,4-triazol-3-yl)-2,2-difluoroethan-1-ol]
9 | 54 | COc1cc2c(-c3cn[nH]c3)c(-c3nnc(N(C)CCO)[nH]3)n(C)c2c(F)c1Cl [Example 63, 2-((5-(6-chloro-7-fluoro-5-methoxy-l-methyl-3-(1H-pyrazol-4-yl)-1H-indol-2-yl)-4H-1,2,4-triazol-3-yl)(methyl)amino)ethan-1-ol]
10 | 112 | Cn1c(-c2nnc(C(F)(F)F)[nH]2)c(-c2cn[nH]c2)c2cc(Cl)c(Cl)cc21 [Example 23, 5,6-dichloro-1-methyl-3-(1H-pyrazol-4-yl)-2-(5-(trifluoromethyl)-4H-1,2,4-triazol-3-yl)-1H-indole]
11 | 1490 | COc1c(Cl)ccc2c(-c3cn[nH]c3)c(-c3nnc(C(F)(F)F)[nH]3)[nH]c12 [Example 17, 6-chloro-7-methoxy-3-(1H-pyrazol-4-yl)-2-(5-(trifluoromethyl)-4H-1,2,4-triazol-3-yl)-1H-indole]
12 | 3690 | FC(F)(F)c1nnc(-c2[nH]c3c(Cl)c(Cl)ccc3c2-c2cc[nH]n2)[nH]1 [Example 78, 6,7-dichloro-3-(1H-pyrazol-3-yl)-2-(5-(trifluoromethyl)-4H-1,2,4-triazol-3-yl)-1H-indole]
13 | 152 | N#Cc1cc2c(-c3cn[nH]c3)c(-c3nnc(C(F)(F)F)[nH]3)[nH]c2c(F)c1Cl [Example 6, 6-chloro-7-fluoro-3-(1H-pyrazol-4-yl)-2-(5-(trifluoromethyl)-4H-1,2,4-triazol-3-yl)-1H-indole-5-carbonitrile]
14 | 121 | COc1cc2c(-n3ccnc3)c(-c3nnc(C(F)(F)F)[nH]3)n(C)c2c(F)c1Cl [Example 47, 6-chloro-7-fluoro-3-(1H-imidazol-1-yl)-5-methoxy-1-methyl-2-(5-(trifluoromethyl)-4H-1,2,4-triazol-3-yl)-1H-indole]
15 | 218 | COC(=O)Cc1nnc(-c2[nH]c3c(Cl)c(Cl)ccc3c2-c2cn[nH]c2)[nH]1 [Example 29, methyl 2-(5-(6,7-dichloro-3-(1H-pyrazol-4-yl)-1H-indol-2-yl)-4H-1,2,4-triazol-3-yl)acetate]
16 | 61 | COc1cc2c(-n3ccnc3)c(-c3nnc(C(=O)N(C)CCO)[nH]3)n(C)c2c(F)c1Cl [Example 41, 5-(6-chloro-7-fluoro-3-(1H-imidazol-1-yl)-5-methoxy-1-methyl-1H-indol-2-yl)-N-(2-hydroxyethyl)-N-methyl-4H-1,2,4-triazole-3-carboxamide]
17 | 30 | COCC(F)(F)c1nnc(-c2c(-c3cn[nH]c3)c3cc(OC)c(Cl)c(F)c3n2C)[nH]1 [Example 66, 6-chloro-2-(5-(1,1-difluoro-2-methoxyethyl)-4H-1,2,4-triazol-3-yl)-7-fluoro-5-methoxy-1-methyl-3-(1H-pyrazol-4-yl)-1H-indole]
18 | 60 | COCC(=O)N(C)c1nnc(-c2c(-c3cn[nH]c3)c3cc(OC)c(Cl)c(F)c3n2C)[nH]1 [Example 62, N-(5-(6-chloro-7-fluoro-5-methoxy-1-methyl-3-(1H-pyrazol-4-yl)-1H-indo1-2-yl)-4H-1,2,4-triazol-3-yl)-2-methoxy-N-methylacetamide]
19 | 37 | COc1cc2c(-n3ccnc3)c(-c3nnc(C(O)C(F)(F)F)[nH]3)n(C)c2c(F)c1Cl (stereo not shown) [Example 98, 1-(5-(6-chloro-7-fluoro-3-(1H-imidazol-1-yl)-5-methoxy-1-methyl-1H-indol-2-yl)-4H-1,2,4-triazol-3-yl)-2,2,2-trifluoroethan-1-ol]
20 | 56 | COc1cc2c(-n3ccnc3)c(-c3nnc(C(=O)N4CCCC(O)C4)[nH]3)n(C)c2c(F)c1Cl (stereo not shown) [Example 45, (5-(6-chloro-7-fluoro-3-(1H-imidazol-1-yl)-5-methoxy-1-methyl-1H-indol-2-yl)-4H-1,2,4-triazol-3-yl)(3-hydroxypiperidin-1-yl)methanone]
21 | 77 | N#Cc1nnc(-c2[nH]c3c(Cl)c(Cl)ccc3c2-c2cn[nH]c2)[nH]1 [Example 35, 5-(6,7-Dichloro-3-(1H-pyrazol-4-yl)-1H-indol-2-yl)-4H-1,2,4-triazole-3-carbonitrile]
22 | 78 | COC[C@@H](O)c1nnc(-c2c(-n3ccnc3)c3cc(OC)c(Cl)c(F)c3n2C)[nH]1 [Example 83, (S)-1-(5-(6-chloro-7-fluoro-3-(1H-imidazol-1-yl)-5-methoxy-1-methyl-1H-indol-2-yl)-4H-1,2,4-triazol-3-yl)-2-methoxyethan-1-ol]
23 | 150 | N#Cc1c(Cl)ccc2c(-c3cn[nH]c3)c(-c3nnc(C(F)(F)F)[nH]3)[nH]c12 [Example 19, 6-chloro-3-(1H-pyrazol-4-yl)-2-(5-(trifluoromethyl)-4H-1,2,4-triazol-3-yl)-1H-indole-7-carbonitrile]
24 | 82 | COCCN(C)C(=O)c1nnc(-c2c(-n3ccnc3)c3cc(OC)c(Cl)c(F)c3n2C)[nH]1 [Example 40, 5-(6-chloro-7-fluoro-3-(1H-imidazol-1-yl)-5-methoxy-1-methyl-1H-indol-2-yl)-N-(2-methoxyethyl)-N-methyl-4H-1,2,4-triazole-3-carboxamide]
25 | 55 | COCC(F)(F)c1nnc(-c2c(-n3ccnc3)c3cc(OC)c(Cl)c(C#N)c3n2C)[nH]1 [Example 55, 6-chloro-2-(5-(1,1-difluoro-2-methoxyethyl)-4H-1,2,4-triazol-3-yl)-3-(1H-imidazol-1-yl)-5-methoxy-1-methyl-1H-indole-7-carbonitrile]
